Data taken from the supplement of paper PMC10307832.

How the values were obtained:
Experiment in all cases: relative viability (nuclei count vs DMSO), 5 days (fraction); higher = more cells survive
[1] = compound: C1=CC(=CC=C1NC(=S)NNC2=C(C=C(C=C2[N+](=O)[O-])C(F)(F)F)[N+](=O)[O-])F [Kobe2602] + Nc1nc2[nH]cc(CCc3ccc(C(=O)N[C@@H](CCC(=O)O)C(=O)O)cc3)c2c(=O)[nH]1 [Pemetrexed] (partner 0.2 µM)
Method in brief: (§1)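 Values are medians from duplicate plates. Each reflects relative viability, defined as the nuclei count of treated wells over that of vehicle wells. Lung cancer cell lines in 1536-well plates were pin-tool dosed one day after seeding with one drug alone or with a fixed anchor-drug dose plus five library-drug doses (not always all listed) in √10 steps, then fixed, stained and imaged at 4× after 5 days.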

[2] = compound: COc1cc2nccc(Oc3ccc(NC(=O)C4(C(=O)Nc5ccc(F)cc5)CC4)cc3)c2cc1OC [Cabozantinib] + CC(C)C[C@H](NC(=O)[C@H](Cc1ccccc1)NC(=O)c1cnccn1)B(O)O [Bortezomib] (partner 0.002 µM)
Method in brief: as §1

[3] = compound: COc1cc2nccc(Oc3ccc(NC(=O)C4(C(=O)Nc5ccc(F)cc5)CC4)cc3)c2cc1OC [Cabozantinib] + CCNC(=O)c1noc(-c2cc(C(C)C)c(O)cc2O)c1-c1ccc(CN2CCOCC2)cc1 [Luminespib] (partner 0.01 µM)
Method in brief: as §1

[4] = compound: O[C@@H](COc1cccc2ncccc12)CN1CCN([C@@H]2c3ccccc3[C@@H]3[C@H](c4ccccc42)C3(F)F)CC1 [Zosuquidar] + CCNC(=O)c1noc(-c2cc(C(C)C)c(O)cc2O)c1-c1ccc(CN2CCOCC2)cc1 [Luminespib] (partner 0.01 µM)
Method in brief: as §1

Cell Line	relative viability ([1]; first compound 0.2 µM)	relative viability ([1]; first compound 0.6325 µM)	relative viability ([1]; first compound 2 µM)	relative viability ([1]; first compound 6.325 µM)	relative viability ([1]; first compound 20 µM)	relative viability ([2]; first compound 0.02 µM)	relative viability ([2]; first compound 0.06325 µM)	relative viability ([2]; first compound 0.2 µM)	relative viability ([2]; first compound 0.6325 µM)	relative viability ([2]; first compound 2 µM)	relative viability ([3]; first compound 0.02 µM)	relative viability ([3]; first compound 0.06325 µM)	relative viability ([3]; first compound 0.2 µM)	relative viability ([3]; first compound 0.6325 µM)	relative viability ([3]; first compound 2 µM)	relative viability ([4]; first compound 0.01 µM)	relative viability ([4]; first compound 0.03162 µM)	relative viability ([4]; first compound 0.1 µM)	relative viability ([4]; first compound 0.3162 µM)	relative viability ([4]; first compound 1 µM)
201T	0.353	0.366	0.341	0.379	0.288	1.14	1.15	1.05	1.08	1.12	1.12	1.08	1.04	1.06	1.03	1.02	1	0.961	1.12	1.04
A-427	0.993	1.08	0.963	0.956	0.902	1.03	0.969	1.05	0.936	0.988	1.23	1.15	1.03	0.912	0.857	1.15	0.963	0.749	1.13	0.756
ABC-1						0.263	0.263	0.294	0.351	0.279	0.458	0.494	0.83	1.11	0.758	0.682	0.742	0.748	0.603	0.474
Calu-6						1.09	1.05	1.04	1.04	0.949										
EBC-1						0.673	0.484	0.221	0.245	0.173										
HCC-78	0.891	0.923	0.699	0.868	0.844	0.409	0.436	0.339	0.227	0.21										
HCC-366	0.157	0.179	0.16	0.146	0.328	1.06	1.13	1.1	0.953	1										
IA-LM						0.912	0.782	0.78	0.998	0.958										
LK-2	0.259	0.188	0.279	0.248	0.328							0.176		0.198	0.196	0.185	0.184	0.169	0.172	0.172
NCI-H358	0.196	0.208	0.17	0.166	0.178							0.549		0.322	0.136	0.334	0.356	0.441	0.347	0.413
NCI-H522	1.06	1.19	0.974	1.15	1.01						1.15	1.41	1.56	1.07	1.23	1.08	1.19	1.23	0.965	1.28
NCI-H727						0.704	0.901	0.718	0.819	0.947	0.285	0.453	0.643	0.362	0.312	0.23	0.344	0.434	0.427	0.431
NCI-H1299						1.01	1.03	1.03	1.01	1.05										
NCI-H1395	1.04	1.01	0.931	0.967	0.843						0.744	0.978	0.873	0.619	0.547	0.685	0.656	0.618	0.349	0.818
NCI-H1623											0.53	0.497	0.47	0.446	0.492	0.371	0.511	0.539	0.451	0.476
NCI-H1648	0.759	0.684	0.519	0.693	0.809															
NCI-H1703						0.243	0.237	0.235	0.194	0.154										
NCI-H1793	0.732	1.04	0.781	0.903	0.875						0.591	0.168	0.144	0.202	0.155	0.179	0.263		0.207	0.207
NCI-H1944	0.632	0.658	0.738	0.626	0.62						0.739	0.818	0.754	0.719	0.762	0.76	0.655	0.722	0.785	0.651
NCI-H2170	0.293	0.26	0.242	0.295	0.263						0.729	0.952	0.587	0.857	0.849	0.663	0.716	0.599	0.92	0.582
NCI-H2342	0.734	0.754	0.734	0.763	0.844						0.673	0.837	0.864	0.604	0.591	0.753	0.591	0.605	0.644	0.845
SK-MES-1	0.917	0.946	0.934	0.868	0.534						0.835	1	0.9	0.875	0.729	0.72	0.732	0.732	0.881	0.938
SW 900	0.472	0.489	0.479	0.487	0.493						0.17	0.19	0.2	0.177	0.166	0.172	0.171	0.181	0.198	0.172
